In PubChem BioAssay AID330 (DTP/NCI, 2004):
Several values for one entry are separate records, joined by “and”; a condition that tells them apart may be missing. Equal values may be shown once. Toxic doses and inconclusive results are not listed.

Test system: P388 leukemia ip, CD2F1 mice, survival T/C
Test: NCI In Vivo Anticancer Drug Screen. Data for tumor model P388 Leukemia (intraperitoneal) in CD2F1 (CDF1) mice
Settings: endpoint: median survival time, higher = longer survival
Outline: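 Mice carrying the transplanted tumor received test compound or vehicle. Survival was recorded in each group, and the value is the treated-group measurement divided by that of the vehicle-treated control group.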

[1] = dose: 50.0 mg/kg/injection, schedule: Q01DX009 (ip), vehicle: saline with Tween-80
[2] = dose: 100.0 mg/kg/injection, schedule: Q01DX009 (ip), vehicle: saline with Tween-80
[3] = dose: 50.0 mg/kg/injection, schedule: Q01DX005 (ip), vehicle: saline with Tween-80
[4] = dose: 100.0 mg/kg/injection, schedule: Q01DX005 (ip), vehicle: saline with Tween-80
[5] = dose: 200.0 mg/kg/injection, schedule: Q01DX005 (ip), vehicle: saline with Tween-80
[6] = dose: 200.0 mg/kg/injection, schedule: Q01DX009 (ip), vehicle: saline with Tween-80
[7] = dose: 100.0 mg/kg/injection, schedule: Q04DX002 (ip), vehicle: Klucel (hydroxypropylcellulose) (HPC)
[8] = dose: 200.0 mg/kg/injection, schedule: Q04DX002 (ip), vehicle: Klucel (hydroxypropylcellulose) (HPC)
[9] = dose: 400.0 mg/kg/injection, schedule: Q04DX002 (ip), vehicle: Klucel (hydroxypropylcellulose) (HPC)
[10] = dose: 60.0 mg/kg/injection, schedule: Q01DX005 (ip), vehicle: saline with Tween-80
[11] = dose: 120.0 mg/kg/injection, schedule: Q01DX005 (ip), vehicle: saline with Tween-80
[12] = dose: 240.0 mg/kg/injection, schedule: Q01DX005 (ip), vehicle: saline with Tween-80
[13] = dose: 50.0 mg/kg/injection, schedule: Q01DX005 (ip), vehicle: saline
[14] = dose: 100.0 mg/kg/injection, schedule: Q01DX005 (ip), vehicle: saline
[15] = dose: 200.0 mg/kg/injection, schedule: Q01DX005 (ip), vehicle: saline

Compound: N#Cc1cc(Cl)ccc1[N+](=O)[O-]
- T/C [1]: 102 % of control
- T/C [2]: 103 % of control

Compound: Nc1nc(N)nc(NCCSSCCNc2nc(N)nc(N)n2)n1
- T/C (dose: 12.5 mg/kg/injection, schedule: Q01DX009 (ip), vehicle: other): 97 % of control
- T/C (dose: 25.0 mg/kg/injection, schedule: Q01DX009 (ip), vehicle: other): 102 % of control
- T/C (dose: 50.0 mg/kg/injection, schedule: Q01DX009 (ip), vehicle: other): 104 % of control and 86 % of control

Compound: Cc1cccc(NC(=S)NNc2nnc(-c3ccccc3)c(-c3ccccc3)n2)c1
- T/C [3]: 90 % of control
- T/C [4]: 99 % of control
- T/C [5]: 100 % of control

Compound: O=C(N=C(N=C(c1ccccc1)N1CCCCC1)c1ccccc1)c1ccccc1
- T/C [1]: 96 % of control
- T/C [2]: 93 % of control
- T/C [6]: 95 % of control

Compound: CP12(OC(C(F)(F)F)(C(F)(F)F)c3ccccc31)OC(C(F)(F)F)(C(F)(F)F)c1ccccc12
- T/C [7]: 100 % of control
- T/C [8]: 101 % of control
- T/C [9]: 96 % of control

Compound: O=C(Nc1ccc(Cl)cc1)Nc1nnc(/C=C/c2ccc(Cl)c(Cl)c2)o1
- T/C [10]: 95 % of control
- T/C [11]: 91 % of control
- T/C [12]: 101 % of control

Compound: CCCCCCCCCCNC(=O)C[n+]1cccc(C(=O)NCc2ccccc2)c1
- T/C (dose: 3.13 mg/kg/injection, schedule: Q01DX009 (ip), vehicle: saline with Tween-80): 100 % of control
- T/C (dose: 6.25 mg/kg/injection, schedule: Q01DX009 (ip), vehicle: saline with Tween-80): 95 % of control
- T/C (dose: 12.5 mg/kg/injection, schedule: Q01DX009 (ip), vehicle: saline with Tween-80): 90 % of control

Compound: COc1c(Cl)cc(Cl)cc1C(=O)NO
- T/C [3]: 97 % of control
- T/C [4]: 106 % of control
- T/C [5]: 112 % of control

Compound: COc1ccc2c(c1)C(=O)[C@]1(C)C3(C)OC(=O)C(c4ccccc43)[C@]21C (stereo partly drawn)
- T/C [10]: 110 % of control
- T/C [11]: 105 % of control
- T/C [12]: 98 % of control

Compound: CN(C)Cc1cc2c(=O)[nH]c(N)nc2[nH]1
- T/C (dose: 100.0 mg/kg/injection, schedule: Q01DX001 (ip), vehicle: Klucel (hydroxypropylcellulose) (HPC)): 101 % of control
- T/C (dose: 200.0 mg/kg/injection, schedule: Q01DX001 (ip), vehicle: Klucel (hydroxypropylcellulose) (HPC)): 104 % of control

Compound: CN(C)C(=S)Oc1ccccc1C1SCCS1
- T/C [3]: 101 % of control
- T/C [4]: 99 % of control
- T/C [5]: 105 % of control

Compound: CN=C(N)NN=C(c1ccc(Br)cc1)c1ccc(Br)cc1
- T/C (dose: 25.0 mg/kg/injection, schedule: Q04DX002 (ip), vehicle: saline with Tween-80): 100 % of control and 106 % of control
- T/C (dose: 50.0 mg/kg/injection, schedule: Q04DX002 (ip), vehicle: saline with Tween-80): 103 % of control and 124 % of control

Compound: Nc1nc2[nH]ncc2c(=O)[nH]1
- T/C (dose: 25.0 mg/kg/injection, schedule: Q01DX009 (ip), vehicle: saline with Tween-80): 90 % of control
- T/C [1]: 100 % of control
- T/C (dose: 50.0 mg/kg/injection, schedule: Q04DX003 (ip), vehicle: saline with Tween-80): 104 % of control
- T/C [2]: 90 % of control
- T/C (dose: 100.0 mg/kg/injection, schedule: Q04DX003 (ip), vehicle: saline with Tween-80): 109 % of control

Compound: CCc1nc(N)nc(N)c1-c1ccc(N(C)C)c(N=[N+]=[N-])c1
- T/C (dose: 15.0 mg/kg/injection, schedule: Q01DX005 (ip), vehicle: Klucel (hydroxypropylcellulose) (HPC)): 96 % of control
- T/C (dose: 30.0 mg/kg/injection, schedule: Q01DX005 (ip), vehicle: Klucel (hydroxypropylcellulose) (HPC)): 92 % of control
- T/C (dose: 60.0 mg/kg/injection, schedule: Q01DX005 (ip), vehicle: Klucel (hydroxypropylcellulose) (HPC)): 105 % of control and 113 % of control

Compound: CCN(CC)CCNC
- T/C [13]: 99 % of control
- T/C [14]: 95 % of control
- T/C [15]: 98 % of control

Compound: O=C1CCCc2[nH]c3ccc(Cl)cc3c21
- T/C [3]: 92 % of control
- T/C [4]: 99 % of control
- T/C [5]: 92 % of control

Compound: Cn1c(-c2ccccc2)cc2cc(CN)ccc21
- T/C (dose: 50.0 mg/kg/injection, schedule: Q01DX009 (ip), vehicle: Klucel (hydroxypropylcellulose) (HPC)): 100 % of control
- T/C (dose: 100.0 mg/kg/injection, schedule: Q01DX009 (ip), vehicle: Klucel (hydroxypropylcellulose) (HPC)): 100 % of control

Compound: CC1=NN(c2ccccc2)C(=O)/C1=C(\[O-])c1ccccc1.CC1=NN(c2ccccc2)C(=O)/C1=C(\[O-])c1ccccc1.CC1=NN(c2ccccc2)C(=O)/C1=C(\[O-])c1ccccc1.[Fe+3]
- T/C (dose: 15.0 mg/kg/injection, schedule: Q01DX005 (ip), vehicle: saline with Tween-80): 96 % of control and 97 % of control
- T/C (dose: 30.0 mg/kg/injection, schedule: Q01DX005 (ip), vehicle: saline with Tween-80): 101 % of control and 90 % of control
- T/C [11]: 104 % of control and 87 % of control

Compound: CC(C)CC(NC(=O)C(N)Cc1ccc(N(CCCl)CCCl)cc1)C(=O)O (stereo not drawn)
- T/C (dose: 3.7 mg/kg/injection, schedule: Q04DX003 (ip), vehicle: saline with Tween-80): 155 % of control and 172 % of control
- T/C (dose: 8.4 mg/kg/injection, schedule: Q04DX003 (ip), vehicle: saline with Tween-80): 187 % of control and 203 % of control
- T/C (dose: 12.6 mg/kg/injection, schedule: Q04DX003 (ip), vehicle: saline with Tween-80): 204 % of control and 272 % of control
- T/C (dose: 18.9 mg/kg/injection, schedule: Q04DX003 (ip), vehicle: saline with Tween-80): 108 % of control and 118 % of control
- T/C (dose: 32.0 mg/kg/injection, schedule: Q04DX003 (ip), vehicle: saline with Tween-80): 158 % of control
- T/C (dose: 42.6 mg/kg/injection, schedule: Q04DX003 (ip), vehicle: saline with Tween-80): 179 % of control
- T/C (dose: 64.0 mg/kg/injection, schedule: Q04DX003 (ip), vehicle: saline with Tween-80): 190 % of control and 198 % of control
- T/C (dose: 96.0 mg/kg/injection, schedule: Q04DX003 (ip), vehicle: saline with Tween-80): 243 % of control
- T/C (dose: 128.0 mg/kg/injection, schedule: Q04DX003 (ip), vehicle: saline with Tween-80): 88 % of control

Compound: CCOC(=O)c1ccc(NC(=O)Nc2nccs2)cc1
- T/C [6]: 162 % of control
- T/C (dose: 400.0 mg/kg/injection, schedule: Q01DX009 (ip), vehicle: saline with Tween-80): 92 % of control

Compound: CC1C(=O)C23CCC4C5(C)CCCC4(CN4CCOC45)C2CCC1C3 (stereo not drawn)
- T/C (dose: 1.0 mg/kg/injection, schedule: Q01DX009 (ip), vehicle: Klucel (hydroxypropylcellulose) (HPC)): 97 % of control
- T/C (dose: 2.0 mg/kg/injection, schedule: Q01DX009 (ip), vehicle: Klucel (hydroxypropylcellulose) (HPC)): 95 % of control
- T/C (dose: 4.0 mg/kg/injection, schedule: Q01DX009 (ip), vehicle: Klucel (hydroxypropylcellulose) (HPC)): 98 % of control
- T/C (dose: 8.0 mg/kg/injection, schedule: Q01DX009 (ip), vehicle: Klucel (hydroxypropylcellulose) (HPC)): 103 % of control

Compound: O=S(=O)(O)CCCOC1COc2ccccc2OCCOCCOc2ccccc2OC1
- T/C [13]: 99 % of control
- T/C [14]: 101 % of control
- T/C [15]: 98 % of control

Compound: N#CN=[N+]([O-])c1cccc([N+](=O)[O-])c1
- T/C (dose: 6.25 mg/kg/injection, schedule: Q04DX003 (ip), vehicle: Klucel (hydroxypropylcellulose) (HPC)): 106 % of control
- T/C (dose: 12.5 mg/kg/injection, schedule: Q04DX003 (ip), vehicle: Klucel (hydroxypropylcellulose) (HPC)): 89 % of control

Compound: CCC(=O)c1c(C)oc2ccc(O)cc12
- T/C (dose: 25.0 mg/kg/injection, schedule: Q04DX002 (ip), vehicle: Klucel (hydroxypropylcellulose) (HPC)): 94 % of control
- T/C (dose: 50.0 mg/kg/injection, schedule: Q04DX002 (ip), vehicle: Klucel (hydroxypropylcellulose) (HPC)): 89 % of control
- T/C [7]: 91 % of control
- T/C [8]: 90 % of control
- T/C [9]: 90 % of control

Compound: COc1cc(/C=C/C(=O)c2ccccc2O)cc(OC)c1OC
- T/C [3]: 97 % of control
- T/C [4]: 110 % of control
- T/C [5]: 97 % of control

Compound: COc1cccc(C(=O)NCCNCCNC(=O)c2cccc(OC)c2OC)c1OC
- T/C [10]: 108 % of control
- T/C [11]: 104 % of control
- T/C [12]: 94 % of control
